Experimental data from patent US10954306B2 (priority 2015, dated 2021).
Where no end group is shown, it is not given here.

Legend:
[1] = tested on: antibody (polyclonal anti-T14); experiment: ELISA motif determination with linear peptide variants; assay type: binding, rabbit; settings: 100 nM peptide, FIGS. 5-10
Protocol: The standard curves and the samples were run in triplicate. For the detection of T14, Pep4, T15 and amyloid, 8 nanomolar concentrations of each were used for the ELISA. On the other hand, for the motif determination experiment, only one concentration of each of the peptide variants was used of 100 nM. For the detection of T14 on rat brain samples, different dilutions of the protein were used. […] The standard curve for determination of T14 peptide in brain tissue and the brain tissue samples were diluted in PBS buffer. The standard curves ranged from 8 to 100 nM of T14. Briefly, 96-well immunoplates (NUNC) were coated with 100 μl/well of sample or standard T14, covered with parafilm and incubated overnight at 4° C. The following day the sample was removed by flicking the plate over a sink with running water, and 200 μl of the blocking solution containing 2% Bovine Serum Albumin (BSA) in Tris-Buffered Saline and Tween 20 (TBS-T) was added and incubated for 4 h at room temperature. Blocking solution was then removed and 100 μl of antibody, diluted in blocking solution to 1 μg/ml, was added and incubated overnight at 4° C. The primary antibody was removed the next day and wells were washed 3 times with 200 μl of TBS-T. After, 100 μl of secondary antibody diluted in blocking solution to […] was added and incubated for 2 h at room temperature; the plate was covered with parafilm during all incubations. After 2 h, the plate was washed 4 times with TBS-T. The addition of 3,3,5,5-tetramethylbenzidine started the colour reaction.
The inventors investigate the immunospecificity of the antibody of the invention by carrying out binding experiments with a series of different linear peptides.

[2] = tested on: rat brain slices; settings: cited from earlier work
[3] = tested on: compensatory AChE release; settings: cited from earlier work
[4] = biological target: α7 nicotinic-receptor (Homo sapiens, UniProt P36544); settings: cited from earlier work
α7 nicotinic-receptor, sequence (P36544 23-502): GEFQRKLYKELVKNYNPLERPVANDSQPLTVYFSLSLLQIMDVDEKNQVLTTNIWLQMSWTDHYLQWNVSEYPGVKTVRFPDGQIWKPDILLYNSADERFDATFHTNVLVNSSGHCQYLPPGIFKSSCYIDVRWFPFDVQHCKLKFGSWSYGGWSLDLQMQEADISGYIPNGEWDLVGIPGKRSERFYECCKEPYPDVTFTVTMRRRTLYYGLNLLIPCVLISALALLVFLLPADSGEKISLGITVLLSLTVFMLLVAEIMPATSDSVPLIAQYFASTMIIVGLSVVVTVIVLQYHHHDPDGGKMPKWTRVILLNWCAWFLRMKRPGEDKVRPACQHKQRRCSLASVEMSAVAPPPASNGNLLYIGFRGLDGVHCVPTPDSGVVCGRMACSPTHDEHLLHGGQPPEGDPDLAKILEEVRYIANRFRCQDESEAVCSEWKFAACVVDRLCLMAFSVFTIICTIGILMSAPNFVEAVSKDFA

[5] = T14 aggregation by WB and ELISA; assay type: physicochemical; settings: 200 μM, neutralised PBS, 0-4 hours at 25° C.
Protocol: Exogenous T14 stock solution (20 mM) solution was created by resuspension in distilled water. Subsequently, stock solution was diluted to a working stock solution (400 μM) with PBS (pH 10.5). Aggregation was initiated by neutralising the working stock solution by adding PBS (pH 5) to create a final concentration of 200 μM, which was incubated for 0, 1, 2, 3, 4 hours at 25° C. Moreover, T14 monomer control was created by diluting the working stock with PBS (pH 10.5) to 200 μM and incubating at 25° C. for 4 hours. A further no peptide control was created by mixing together pH 5 and pH 10.5 PBS and incubating at 25° C. for 4 hours. WB (A) and ELISA (B) were then conducted on the above T14 aggregation samples and quantified;

Substance: EFHRWSSYMVHWK [Peptide 1305]
- recognition of the peptide by the antibody (ELISA) [1]: strongly binds

Substance: FHRWSSYMVHWK [Peptide 1206]
- recognition of the peptide by the antibody (ELISA) [1]: strongly binds

Substance: NBP14 (AEFHRWSSYMVHWK; not fully specified)
- effect on Ca2+ concentrations ([2]; given alone): no significant effect
- effect on Ca2+ concentrations in presence of T30 ([2]; with T30): blocks the effects of T30
- compensatory AChE release induced by the toxicity of linear T14 and T30 [3]: blocks
- protection of cells from linear T14, T30 and β-amyloid toxicity [4]: protect cells

Substance: HRWSSYMVHWK [Peptide 1107]
- recognition of the peptide by the antibody (ELISA) [1]: strongly binds

Substance: AEFHRWSSYMVHWK [Peptide T14]
- T14 aggregation [5]: grows exponentially
- T14 monomer pool [5]: remains unchanged
- recognition of the peptide by the antibody (ELISA) [1]: strongly binds
